Data as given in patent US20240369576A1, “ASSAYS FOR ALPHA-DYSTROGLYCAN GLYCOSYLATION AND METHODS FOR USING SAME” (ML Bio Solutions Inc., priority 2023, published 2024).
Entries after “also recorded” stand apart in the source; their conditions may differ.

Experiments:
[1] = test system: αDG glycosylation in P448L mutant FKRP mice; assay: Multiplexed Western blot of total and glycosylated αDG in muscle of P448L mutant FKRP mice treated with 5% Ribitol; format: in vivo, mouse; conditions: 5% Ribitol treated P448L mice vs untreated P448L mice, heart muscle and TA lysates
Method: Murine Mouse Tissue: Murine muscle tissue samples from healthy, [MUT], and […] mutant mice were stored at -80° C. until analysis. Tissue Processing: Tissue samples were processed using a TissueLyzer IITM (Qiagen®). Approximately 250 milligrams (mg) of tissue was placed in a 2 mL microtube with a steel bead and 1 mL of Radioimmunoprecipitation assay buffer (RIPA) buffer supplemented with protease and phosphatase inhibitors. The microtubes were subjected to three cycles of disruption (2 minutes at 25 Hertz (Hz)) in the TissueLyzer IITM. Lysates were clarified by centrifugation and the supernatant was transferred to fresh tubes and protein concentration in lysate was determined using a BCA assay (Pierce®). […] The membrane was visualized on an Odyssey CLxTM imager (LiCorTM) and intensities of the 700 and 800 nm channels were recorded. […] Signal intensities were normalized to total protein and the ratio of 700 nm normalized signal/800 nm normalized signal was determined. Linear fits were assessed where applicable using the linear regression function of PrismTM. Statistical significance was determined using an unpaired t-test using PrismTM (e.g., using the p-value for the parameters slope and intercept). StainFree gel image is quantitated using ImageLabTM software to analyze the image from the ChemiDocTM Imaging System. […] Linear fits were assessed were applicable using a linear regression function. […]

[2] = test system: glycosylated αDG; assay: Open label Phase 2 study of ribitol in LGMD2I/R9: glycosylated αDG in tibialis anterior biopsies by Western blot; format: in vivo, human
Method: Tissue Lysis and sample preparation: Tissue samples were processed in lysis buffer, supplemented with protease inhibitors. Total protein in lysate was determined by BCA (Thermo Fisher) for RIPA and protein 660 kit (Thermo Fisher) for SDS-Urea and tested at 60 μg for CP Heterozygous samples and 40 μg for Homozygous samples. Differential protein loading is used for different patients to compensate for patient deficits in glycosylated αDG. […] Loading additional protein helps compensate for this deficiency and allows the assay to detect lower-level ranges. This is further stratified by patient genotype: more severe patients require greater protein loading. Western Blotting: For detection of target proteins αDG-Total and αDG-Glycan, membrane was probed simultaneously with primary antibodies AF6868 alpha Dystroglycan (R&D Systems) and IIH6C4 alpha Dystroglycan (Millipore), followed by fluorescent secondary antibodies IR800CW Mouse Anti-Sheep and IR680 Goat Anti-Mouse secondary antibodies (LiCor). The membrane was visualized in Odyssey CLx imager (LiCor) and intensities of the 700 (αDG-Glycan, red bands) and 800 (αDG-Total, green bands) nm channels were recorded. […] Here, amounts of glycosylated and total αDG are determined using standard curves, and an interpolated ratio is computed by dividing the amount of glycosylated αDG to the amount of total αDG. Data Analysis: Integration boxes were drawn using Image Studio software with specific dimensions over molecular weight range for standards, test articles and control samples. Data analysis was done in Excel (Microsoft). […] Healthy positive control (HPC) at 10 μg was deployed to monitor assay performance. […] FIG. 12 schematically illustrates a workflow for the Western Blot method. Briefly, biopsies are collected from a subject at a desired timepoint and homogenized. Gel electrophoresis is performed, followed by membrane transfer and blocking. Sample is incubated with the primary antibody followed by the secondary antibody. Detection and analysis are subsequently performed. […] A broader region of 70-260 kDa was used in prior iterations of the assay, including that described in Example 2 herein. […] Multiple sections of a single healthy donor TA biopsy sample are homogenized and the resulting lysate is pooled together and stored in single use aliquots at −80° C. These aliquots are used to generate a standard curve which is used in every assay. In addition, a quality control of 10 μg lysate is used to assess assay performance by measuring interpolatability to the standard curve. Methods: This study is an open label dose escalation study of patients with LGMD2I/R9. Part 1 of the study involved three dose cohorts (6 g QD, 6 g BID and 12 g BID) treated for 3 months. During Parts 2 (target maximal dose) and 3 (ongoing OLE), all patients received 12 g BID, dose adjusted for lower weight. FIG. 17 schematically illustrates the details of the clinical study. Briefly, the study includes 3 parts: a 90 day dose escalation phase (Part 1), a 90 day maximum dose phase (Part 2), and a 24 month long term extension phase (Part 3). In Part 1, 14 total patients are studied across three cohorts (6 g QD, 6 g BID, and 12 g BID ribitol). After Part 1, all patients transition to the highest dose, 12 g BID ribitol. Dosing adjustments in Part 2 were as follows: for patients with weight >70 kg: 12 g BID; for patients with weight between 50-70 kg: 9 g BID; and for patients with weight between 30-50 kg: 6 g BID.

[3] = test system: serum creatine kinase (CK); assay: Open label Phase 2 study of ribitol in LGMD2I/R9: serum creatine kinase; format: in vivo, human
Description: (§1) Methods: This study is an open label dose escalation study of patients with LGMD2I/R9. Part 1 of the study involved three dose cohorts (6 g QD, 6 g BID and 12 g BID) treated for 3 months. During Parts 2 (target maximal dose) and 3 (ongoing OLE), all patients received 12 g BID, dose adjusted for lower weight. FIG. 17 schematically illustrates the details of the clinical study. Briefly, the study includes 3 parts: a 90 day dose escalation phase (Part 1), a 90 day maximum dose phase (Part 2), and a 24 month long term extension phase (Part 3). In Part 1, 14 total patients are studied across three cohorts (6 g QD, 6 g BID, and 12 g BID ribitol). After Part 1, all patients transition to the highest dose, 12 g BID ribitol. Dosing adjustments in Part 2 were as follows: for patients with weight >70 kg: 12 g BID; for patients with weight between 50-70 kg: 9 g BID; and for patients with weight between 30-50 kg: 6 g BID. Dosing adjustments in Part 3 were as follows: for patients with weight >50 kg: 12 g BID; and for patients with weight between 30-50 kg: 9 g BID. Key endpoints for the study include NSAD; 10 or 100 meter walk test; FVC; PUL2.0; glycosylated αDG levels; and serum creatine kinase (CK).

[4] = test system: patients with LGMD2I/R9; assay: Open label Phase 2 study of ribitol in LGMD2I/R9: ambulatory and clinical measures (NSAD, 10MWT, 100MTT); format: in vivo, human; conditions: following 15 months of ribitol treatment, vs natural history decline
Description: as §1, with “Key inclusion criteria for the study include age between 12-55 years at enrollment; genetically confirmed LGMD2I/R9 diagnosis; body weight of at least 30 kg; and ability to complete a […] walk test in <12 seconds unaided for moderate disease, or unable to complete the 10MWT for severe disease. Key” for “Key”

[5] = test system: patients with LGMD2I/R9; assay: Open label Phase 2 study of ribitol in LGMD2I/R9: safety and tolerability; format: in vivo, human
Description: Objectives: The Phase 2 study is intended to explore the safety and tolerability of ribitol. Additionally, the feasibility and usefulness of clinical efficacy and pharmacodynamic (PD) assessments in patients with LGMD2I receiving ascending doses of ribitol will be investigated.
Methods: This study is an open label dose escalation study of patients with LGMD2I/R9. Part 1 of the study involved three dose cohorts (6 g QD, 6 g BID and 12 g BID) treated for 3 months. During Parts 2 (target maximal dose) and 3 (ongoing OLE), all patients received 12 g BID, dose adjusted for lower weight.
FIG. 17 schematically illustrates the details of the clinical study. Briefly, the study includes 3 parts: a 90 day dose escalation phase (Part 1), a 90 day maximum dose phase (Part 2), and a 24 month long term extension phase (Part 3). In Part 1, 14 total patients are studied across three cohorts (6 g QD, 6 g BID, and 12 g BID ribitol). After Part 1, all patients transition to the highest dose, 12 g BID ribitol. Dosing adjustments in Part 2 were as follows: for patients with weight >70 kg: 12 g BID; for patients with weight between 50-70 kg: 9 g BID; and for patients with weight between 30-50 kg: 6 g BID. Dosing adjustments in Part 3 were as follows: for patients with weight >50 kg: 12 g BID; and for patients with weight between 30-50 kg: 9 g BID.
Key inclusion criteria for the study include age between 12-55 years at enrollment; genetically confirmed LGMD2I/R9 diagnosis; body weight of at least 30 kg; and ability to complete a […] walk test in <12 seconds unaided for moderate disease, or unable to complete the 10MWT for severe disease.

[6] = test system: alpha-DG glycosylation in LGMD2I mouse models; conditions: cited from earlier work
[7] = maximum change over 3-15 months of treatment, FIG. 19

OC[C@@H](O)[C@@H](O)[C@@H](O)CO [ribitol, (2R,3S,4S)-Pentane-1,2,3,4,5-pentol]
αDG expression (total αDG signal, ~50-250 kDa) ([1]; FIG. 6B): increased | ratio of glycosylated αDG to total αDG ([1]; FIG. 6C): increased | change in glycosylated αDG vs baseline ([2]; LGMD2I/R9 patients, oral ribitol 6 g QD to 12 g BID, after 90 days, sustained over 15 months): approximate doubling; also recorded: approximately double | levels of glycosylated αDG at 3 months ([2]; Phase 2, 3 months, sustained over 15 months): increased | change in glycosylated αDG by genotype ([2]; both L276I homozygous and other FKRP genotype LGMD2I/R9 patients): Approximate doubling | patients with a ≥100% increase (doubling) in glycosylated αDG levels vs pre-treatment [2, 7]: 10 of 14 | patients with increased glycosylated αDG levels vs pre-treatment baseline [2, 7]: 13 of 14 | αDG glycosylation in LGMD2I/R9 muscle biopsies ([2]; treatment with ribitol, FIGS. 13A-13B): dramatically increases | change in serum CK ([3]; after 3 months of treatment, FIG. 20): notable change | sustained reduction in serum creatine kinase (CK) ([3]; over 15 months of ribitol treatment): > 75% | 10MWT velocity [4]: improvements | 100MTT [4]: improvements | NSAD [4]: improvements | 10MWT velocity ([4]; listed as Ribitol): improvement | 100MTT ([4]; listed as Ribitol): improvement | NSAD ([4]; listed as Ribitol): improvement | adverse events leading to discontinuation or interruption in therapy ([5]; 15 months of treatment): No adverse event led to a discontinuation or interruption in therapy | diarrhea, possibly or probably treatment-related ([5]; 75% grade 1, 25% grade 2): 6 incidents | treatment-related serious adverse events, dose limiting toxicities or discontinuations ([5]; across a range of ribitol dose levels): no observed treatment-related serious adverse events, dose limiting toxicities or discontinuations | nausea, possibly or probably treatment-related ([5]; both grade 1): 2 incidents | vomiting, possibly or probably treatment-related ([5]; both grade 1): 2 incidents | adverse events possibly or probably related to ribitol treatment ([5]; during the course of the study): 12 | adverse events recorded ([5]; during the course of the study, 14 patients): 136 | dehydration, possibly or probably treatment-related ([5]; grade 1): 1 incident | dyspepsia, possibly or probably treatment-related ([5]; grade 1): 1 incident | gastroenteritis, possibly or probably treatment-related ([5]; grade 2): 1 incident | headaches, possibly or probably treatment-related ([5]; grade 2): 1 incident | tolerability ([5]; over 15 months of treatment): well-tolerated; also recorded: well tolerated | severe adverse events ([5]; unrelated to the treatment): 3 | alpha-DG glycosylation [6]: increase
